Laboratory results reported in patent publication US20250051694A1, “BAR COMPOSITION HAVING ENHANCED ANTIMICROBIAL ACTIVITY” (Conopco, Inc., d/b/a UNILEVER, priority 2021, published 2025).

System: S. aureus ATCC 6538
Assay: Time-kill assay (adapted from ASTM E2315-16), Gram positive
Type: cell-based
Conditions: Table II, simulated 10% slurry
Protocol: Aqueous slurries were prepared whereby gratings from the bars made in the Samples of Table I were mixed with water to form a test solution containing 10% by weight of the initial bar component. In the second method, raw bar components, as depicted in the Samples in Table II, were mixed with water to form a test solution containing a total of 10% raw bar component to simulate an aqueous slurry of a bar composition. For each sample, aqueous slurries were mixed at 50° C. to simulate customary consumer washing conditions.
As to the microbes, E. coli ATCC 10536 and S. aureus ATCC 6538 were used in this study to represent Gram negative and Gram positive bacteria, respectively. The bacteria were stored at −80° C. Fresh isolates were cultured twice on Tryptic Soy Agar plates for 24 hours at 37° C. before each experiment.
Test solutions were prepared. In the first method and for the aqueous slurries made from the bar compositions described in Table I, a composition (typically containing up to 15% surfactant) was mixed with water to form a test solution containing 10% weight percent of the initial formulation. In the second method and for the raw ingredients combined in Table II, the same were mixed with water at levels that simulate a 10% dilution of the slurries. In each assessment, test solutions were heated and mixed at […]
The log reduction was calculated using the formula: […]

CC(O)C(=O)O (stereo not shown) [lactic acid]
S. aureus Log Reduction (46° C., 30 sec): performed poorly
